From the NIST ThermoML archive (doi:10.1016/j.tca.2004.08.013)
± gives the expanded uncertainty stated by the source.

Assay: xn = mol fraction of the nth substance listed
Settings: 101.3 kPa, Liquid

Compound: CCN(CC)CC [triethylamine] + CCCCOC(C)=O
- mass density (303.15 K, x1 = 0.0065): 870.3 ± 0.61 kg/m3
- viscosity (303.15 K, x1 = 0.0065): 0.641 ± 0.009 mPa·s
- mass density (303.15 K, x1 = 0.0144): 869.1 ± 0.61 kg/m3
- viscosity (303.15 K, x1 = 0.0144): 0.638 ± 0.009 mPa·s
- mass density (303.15 K, x1 = 0.0226): 867.85 ± 0.61 kg/m3
- viscosity (303.15 K, x1 = 0.0226): 0.631 ± 0.009 mPa·s
- mass density (303.15 K, x1 = 0.0293): 866.83 ± 0.61 kg/m3
- viscosity (303.15 K, x1 = 0.0293): 0.628 ± 0.009 mPa·s
- mass density (303.15 K, x1 = 0.0378): 865.53 ± 0.61 kg/m3
- viscosity (303.15 K, x1 = 0.0378): 0.623 ± 0.009 mPa·s
- mass density (303.15 K, x1 = 0.0454): 864.42 ± 0.61 kg/m3
- viscosity (303.15 K, x1 = 0.0454): 0.618 ± 0.009 mPa·s
- mass density (303.15 K, x1 = 0.0509): 863.54 ± 0.61 kg/m3
- viscosity (303.15 K, x1 = 0.0509): 0.613 ± 0.009 mPa·s
- mass density (303.15 K, x1 = 0.0596): 862.22 ± 0.61 kg/m3
- viscosity (303.15 K, x1 = 0.0596): 0.607 ± 0.009 mPa·s
- mass density (303.15 K, x1 = 0.0668): 861.13 ± 0.61 kg/m3
- viscosity (303.15 K, x1 = 0.0668): 0.603 ± 0.009 mPa·s
- mass density (303.15 K, x1 = 0.0733): 860.14 ± 0.61 kg/m3
- viscosity (303.15 K, x1 = 0.0733): 0.599 ± 0.009 mPa·s

Compound: CCCN(CCC)CCC [tripropylamine] + ClC(Cl)Cl
- mass density (303.15 K, x1 = 0.0106): 1453.58 ± 1.3 kg/m3
- viscosity (303.15 K, x1 = 0.0106): 0.531 ± 0.008 mPa·s
- mass density (303.15 K, x1 = 0.0206): 1437.45 ± 1.3 kg/m3
- viscosity (303.15 K, x1 = 0.0206): 0.541 ± 0.008 mPa·s
- mass density (303.15 K, x1 = 0.032): 1419.7 ± 1.2 kg/m3
- viscosity (303.15 K, x1 = 0.032): 0.546 ± 0.008 mPa·s
- mass density (303.15 K, x1 = 0.0396): 1407.99 ± 1.2 kg/m3
- viscosity (303.15 K, x1 = 0.0396): 0.554 ± 0.008 mPa·s
- mass density (303.15 K, x1 = 0.0509): 1391.16 ± 1.2 kg/m3
- viscosity (303.15 K, x1 = 0.0509): 0.563 ± 0.008 mPa·s
- mass density (303.15 K, x1 = 0.0596): 1378.63 ± 1.1 kg/m3
- viscosity (303.15 K, x1 = 0.0596): 0.568 ± 0.008 mPa·s
- mass density (303.15 K, x1 = 0.0693): 1364.78 ± 1.1 kg/m3
- viscosity (303.15 K, x1 = 0.0693): 0.579 ± 0.008 mPa·s
- mass density (303.15 K, x1 = 0.0787): 1351.78 ± 1.1 kg/m3
- viscosity (303.15 K, x1 = 0.0787): 0.59 ± 0.009 mPa·s
- mass density (303.15 K, x1 = 0.0883): 1338.63 ± 1.1 kg/m3
- viscosity (303.15 K, x1 = 0.0883): 0.598 ± 0.009 mPa·s
- mass density (313.15 K, x1 = 0.0106): 1431.77 ± 1.3 kg/m3
- viscosity (313.15 K, x1 = 0.0106): 0.476 ± 0.007 mPa·s
- mass density (313.15 K, x1 = 0.0206): 1416.02 ± 1.2 kg/m3
- viscosity (313.15 K, x1 = 0.0206): 0.48 ± 0.007 mPa·s
- mass density (313.15 K, x1 = 0.032): 1398.73 ± 1.2 kg/m3
- viscosity (313.15 K, x1 = 0.032): 0.485 ± 0.007 mPa·s
- mass density (313.15 K, x1 = 0.0396): 1387.54 ± 1.2 kg/m3
- viscosity (313.15 K, x1 = 0.0396): 0.489 ± 0.007 mPa·s
- mass density (313.15 K, x1 = 0.0509): 1370.93 ± 1.1 kg/m3
- viscosity (313.15 K, x1 = 0.0509): 0.493 ± 0.007 mPa·s
- mass density (313.15 K, x1 = 0.0596): 1358.79 ± 1.1 kg/m3
- viscosity (313.15 K, x1 = 0.0596): 0.501 ± 0.008 mPa·s
- mass density (313.15 K, x1 = 0.0693): 1345.21 ± 1.1 kg/m3
- viscosity (313.15 K, x1 = 0.0693): 0.504 ± 0.008 mPa·s
- mass density (313.15 K, x1 = 0.0787): 1332.44 ± 1.1 kg/m3
- viscosity (313.15 K, x1 = 0.0787): 0.511 ± 0.008 mPa·s
- mass density (313.15 K, x1 = 0.0883): 1319.39 ± 1 kg/m3
- viscosity (313.15 K, x1 = 0.0883): 0.516 ± 0.008 mPa·s

Compound: CCN(CC)CC [triethylamine] + CCOC(C)=O
- mass density (303.15 K, x1 = 0.0127): 885.47 ± 0.59 kg/m3
- viscosity (303.15 K, x1 = 0.0127): 0.395 ± 0.006 mPa·s
- mass density (303.15 K, x1 = 0.0205): 883.69 ± 0.59 kg/m3
- viscosity (303.15 K, x1 = 0.0205): 0.389 ± 0.006 mPa·s
- mass density (303.15 K, x1 = 0.0323): 881 ± 0.59 kg/m3
- viscosity (303.15 K, x1 = 0.0323): 0.386 ± 0.006 mPa·s
- mass density (303.15 K, x1 = 0.0407): 879.1 ± 0.59 kg/m3
- viscosity (303.15 K, x1 = 0.0407): 0.382 ± 0.006 mPa·s
- mass density (303.15 K, x1 = 0.0522): 876.53 ± 0.6 kg/m3
- viscosity (303.15 K, x1 = 0.0522): 0.379 ± 0.006 mPa·s
- mass density (303.15 K, x1 = 0.0608): 874.62 ± 0.6 kg/m3
- viscosity (303.15 K, x1 = 0.0608): 0.376 ± 0.006 mPa·s
- mass density (303.15 K, x1 = 0.0702): 872.41 ± 0.6 kg/m3
- viscosity (303.15 K, x1 = 0.0702): 0.374 ± 0.006 mPa·s
- mass density (303.15 K, x1 = 0.0783): 870.58 ± 0.6 kg/m3
- viscosity (303.15 K, x1 = 0.0783): 0.371 ± 0.006 mPa·s
- mass density (303.15 K, x1 = 0.09): 867.91 ± 0.6 kg/m3
- viscosity (303.15 K, x1 = 0.09): 0.369 ± 0.006 mPa·s
- mass density (303.15 K, x1 = 0.0996): 866.05 ± 0.6 kg/m3
- viscosity (303.15 K, x1 = 0.0996): 0.367 ± 0.006 mPa·s

Compound: CCCCN [1-butanamine] + ClC(Cl)Cl
- mass density (303.15 K, x1 = 0.0091): 1462.78 ± 1.3 kg/m3
- viscosity (303.15 K, x1 = 0.0091): 0.528 ± 0.008 mPa·s
- mass density (303.15 K, x1 = 0.0196): 1453.53 ± 1.3 kg/m3
- viscosity (303.15 K, x1 = 0.0196): 0.536 ± 0.008 mPa·s
- mass density (303.15 K, x1 = 0.0289): 1445.49 ± 1.3 kg/m3
- viscosity (303.15 K, x1 = 0.0289): 0.544 ± 0.008 mPa·s
- mass density (303.15 K, x1 = 0.0409): 1435.01 ± 1.3 kg/m3
- viscosity (303.15 K, x1 = 0.0409): 0.55 ± 0.008 mPa·s
- mass density (303.15 K, x1 = 0.0483): 1428.52 ± 1.2 kg/m3
- viscosity (303.15 K, x1 = 0.0483): 0.556 ± 0.008 mPa·s
- mass density (303.15 K, x1 = 0.0578): 1420.29 ± 1.2 kg/m3
- viscosity (303.15 K, x1 = 0.0578): 0.562 ± 0.008 mPa·s
- mass density (303.15 K, x1 = 0.0676): 1411.7 ± 1.2 kg/m3
- viscosity (303.15 K, x1 = 0.0676): 0.566 ± 0.008 mPa·s
- mass density (303.15 K, x1 = 0.0775): 1403.16 ± 1.2 kg/m3
- viscosity (303.15 K, x1 = 0.0775): 0.569 ± 0.008 mPa·s
- viscosity (303.15 K, x1 = 0.0848): 0.573 ± 0.008 mPa·s
- mass density (313.15 K, x1 = 0.0091): 1440.74 ± 1.3 kg/m3
- viscosity (313.15 K, x1 = 0.0091): 0.478 ± 0.007 mPa·s
- mass density (313.15 K, x1 = 0.0196): 1431.89 ± 1.3 kg/m3
- viscosity (313.15 K, x1 = 0.0196): 0.485 ± 0.007 mPa·s
- mass density (313.15 K, x1 = 0.0289): 1423.81 ± 1.2 kg/m3
- viscosity (313.15 K, x1 = 0.0289): 0.493 ± 0.007 mPa·s
- mass density (313.15 K, x1 = 0.0409): 1413.72 ± 1.2 kg/m3
- viscosity (313.15 K, x1 = 0.0409): 0.499 ± 0.007 mPa·s
- mass density (313.15 K, x1 = 0.0483): 1407.41 ± 1.2 kg/m3
- viscosity (313.15 K, x1 = 0.0483): 0.505 ± 0.008 mPa·s
- mass density (313.15 K, x1 = 0.0578): 1399.24 ± 1.2 kg/m3
- viscosity (313.15 K, x1 = 0.0578): 0.511 ± 0.008 mPa·s
- mass density (313.15 K, x1 = 0.0676): 1390.72 ± 1.2 kg/m3
- viscosity (313.15 K, x1 = 0.0676): 0.517 ± 0.008 mPa·s
- mass density (313.15 K, x1 = 0.0775): 1382.3 ± 1.1 kg/m3
- viscosity (313.15 K, x1 = 0.0775): 0.521 ± 0.008 mPa·s
- viscosity (313.15 K, x1 = 0.0848): 0.525 ± 0.008 mPa·s

Compound: CCN(CC)CC [triethylamine] + Clc1ccccc1
- mass density (303.15 K, x1 = 0.0118): 1089.87 ± 0.65 kg/m3
- viscosity (303.15 K, x1 = 0.0118): 0.709 ± 0.01 mPa·s
- mass density (303.15 K, x1 = 0.0193): 1086.26 ± 0.64 kg/m3
- viscosity (303.15 K, x1 = 0.0193): 0.702 ± 0.01 mPa·s
- mass density (303.15 K, x1 = 0.0299): 1081.32 ± 0.63 kg/m3
- viscosity (303.15 K, x1 = 0.0299): 0.694 ± 0.01 mPa·s
- mass density (303.15 K, x1 = 0.0415): 1075.87 ± 0.62 kg/m3
- viscosity (303.15 K, x1 = 0.0415): 0.685 ± 0.01 mPa·s
- mass density (303.15 K, x1 = 0.0493): 1072.21 ± 0.61 kg/m3
- viscosity (303.15 K, x1 = 0.0493): 0.677 ± 0.01 mPa·s
- mass density (303.15 K, x1 = 0.0595): 1067.48 ± 0.6 kg/m3
- viscosity (303.15 K, x1 = 0.0595): 0.672 ± 0.01 mPa·s
- mass density (303.15 K, x1 = 0.071): 1062.15 ± 0.59 kg/m3
- viscosity (303.15 K, x1 = 0.071): 0.664 ± 0.009 mPa·s
- mass density (303.15 K, x1 = 0.0792): 1058.37 ± 0.59 kg/m3
- viscosity (303.15 K, x1 = 0.0792): 0.658 ± 0.009 mPa·s
- mass density (303.15 K, x1 = 0.0893): 1053.74 ± 0.58 kg/m3
- viscosity (303.15 K, x1 = 0.0893): 0.652 ± 0.009 mPa·s
- mass density (303.15 K, x1 = 0.0994): 1049.13 ± 0.57 kg/m3
- viscosity (303.15 K, x1 = 0.0994): 0.645 ± 0.009 mPa·s
